Experimental data: article PMC12892976, “Alkylation-based optimization of antifungal FPPS inhibitors yields a potent, broad-spectrum lipophilic zoledronate derivative” (mBio, 2025)
Values after ≈ are worked out from the molar mass of the structure shown. Read-outs that look alike come from different tables or passages of the source.

What was measured:
Candida glabrata [1] = test: checkerboard drug interaction (FICI, MICc);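 on all read-outs here: simplified diagonal checkerboard screen pairing antifungals with FPPS inhibitors, FICI calculated under the Loewe additivity model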; format: cell-based; conditions: C. glabrata; for INH FD (MIC-MICc fold decrease): fold decrease of inhibitor MIC
Protocol: (§1) Drug interactions between antifungals and FPPS inhibitors were investigated using a simplified checkerboard diagonal screening method ([45]). […] FICIs were determined according to the Loewe additivity model ([17]).

Cryptococcus neoformans [2] = test: checkerboard drug interaction (FICI, MICc);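 on all read-outs here: antifungal plus FPPS inhibitor pairs tested against Cryptococcus neoformans by simplified diagonal checkerboard screening, FICI computed under the Loewe additivity model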; format: cell-based; conditions: C. neoformans; for INH FD (MIC-MICc fold decrease): fold decrease of inhibitor MIC
Protocol: as §1

HEK-293T cells = test: MTT reduction cytotoxicity assay; format: cell-based; conditions: Homo sapiens, HEK-293T, 72 h, MTT, 72 h
Aspergillus flavus [3] = test: checkerboard drug interaction (FICI, MICc);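 further: simplified diagonal checkerboard screen pairing azole antifungals with FPPS inhibitors, FICI calculated under the Loewe additivity model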; format: cell-based; design: INH MICc (KET:INH) / INH MICc (FLC:INH): unit not given beside the values; conditions: A. flavus
Cryptococcus neoformans [4] = test: MIC/MFC broth microdilution (CLSI); conditions: Cryptococcus neoformans;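 further: susceptibility testing followed the CLSI M27-Ed4 broth microdilution document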
Protocol: (§2) Antifungal susceptibility was determined by broth microdilution according to the CLSI guidelines described in M27-Ed4 ([16]). […] MFC was determined by back-plating drug-treated cultures from MIC broths onto SDA plates. The MFC was defined as the lowest concentration from which no colonies could be cultured.

Aspergillus fumigatus [5] = test: MIC/MFC broth microdilution (CLSI); conditions: ATCC204305
Protocol: as §2

Aspergillus fumigatus [6] = test: checkerboard drug interaction (FICI, MICc); format: cell-based;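 further: simplified diagonal checkerboard screen pairing antifungals with FPPS inhibitors against Aspergillus fumigatus, with FICI calculated under the Loewe additivity model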
Protocol: as §1

[7] = test system: Cryptococcus deuterogattii; test: MIC/MFC broth microdilution (CLSI); conditions: Cryptococcus deuterogattii;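 further: broth microdilution per CLSI M27-Ed4. MFC is the lowest concentration yielding no colonies when MIC broths are subcultured onto SDA plates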
Protocol: as §2

eight fungal species [8] = test: MIC/MFC summary across the eight fungal species of Table 1; format: cell-based
Protocol: The antifungal activity of these compounds was evaluated according to CLSI guidelines ([16]).

Trichophyton rubrum [9] = test: MIC/MFC broth microdilution (CLSI); conditions: Trichophyton rubrum
Protocol: as §2

eight fungal species [10] = test: checkerboard interaction with azoles, summary across the eight species; format: cell-based; conditions: geometric mean MIC in combination with azoles
Text: Synergy between lipophilic FPPS inhibitors and azole antifungals was investigated by determining the fractional inhibitory concentration index (FICI) (Fig. 2; Table S1 Fig. S1) ([17]). […]. Derivatives PLA9 and 11, and PDA9, 11, and 12 antagonized azoles in C. albicans, C. neoformans, and C. deuterogattii, yet were largely synergistic in C. glabrata and S. cerevisiae. […].

Candida albicans [11] = test: MIC/MFC broth microdilution (CLSI); format: cell-based; conditions: Candida albicans SC5314
Protocol: as §2

Candida glabrata [12] = test: MIC/MFC broth microdilution (CLSI); conditions: Nakaseomyces glabratus, CBS138;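 further: broth microdilution following CLSI M27-Ed4, MFC taken as the lowest drug level yielding no growth once MIC wells were subcultured on SDA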
Protocol: as §2

Saccharomyces cerevisiae [13] = test: MIC/MFC broth microdilution (CLSI); format: cell-based; conditions: Saccharomyces cerevisiae S288c
Protocol: as §2

Saccharomyces cerevisiae [14] = test: checkerboard drug interaction (FICI, MICc); format: cell-based; design: INH MICc / INH MICc (ITR:INH) / INH MICc (KET:INH) / INH MICc (FLC:INH): unit not given beside the values;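 further: simplified diagonal checkerboard screen pairing antifungals with FPPS inhibitors, FICI calculated under the Loewe additivity model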
Candida albicans [15] = test: checkerboard drug interaction (FICI, MICc);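 on all read-outs here: antifungal plus FPPS inhibitor combinations on Candida albicans tested by a simplified diagonal checkerboard screen, with FICI calculated under the Loewe additivity model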; format: cell-based; conditions: C. albicans; for INH FD (MIC-MICc fold decrease): fold decrease of inhibitor MIC
Protocol: as §1

Trichophyton rubrum [16] = test: checkerboard drug interaction (FICI, MICc);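 further: simplified diagonal checkerboard screen pairing azole antifungals with FPPS inhibitors, FICI calculated under the Loewe additivity model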; format: cell-based; conditions: T. rubrum
Protocol: as §1

[17] = test system: Cryptococcus deuterogattii; test: checkerboard drug interaction (FICI, MICc);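 on all read-outs here: simplified diagonal checkerboard screen pairing antifungal drugs with FPPS inhibitors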; format: cell-based; conditions: C. deuterogattii; for INH FD (MIC-MICc fold decrease): fold decrease of inhibitor MIC
Protocol: as §1

Aspergillus flavus [18] = test: MIC/MFC broth microdilution (CLSI); conditions: ATCC204304
Protocol: as §2

[19] = FLC:INH combination, MIC of the inhibitor in combination with FLC
[20] = FLC:INH combination, fold decrease of FLC MIC
[21] = ITR:INH combination, MIC of the inhibitor in combination with ITR
[22] = ITR:INH combination, fold decrease of ITR MIC
[23] = KET:INH combination, MIC of the inhibitor in combination with KET
[24] = KET:INH combination, fold decrease of KET MIC
[25] = Fractional Inhibitory Concentration Index, fluconazole + inhibitor
[26] = Fractional Inhibitory Concentration Index, itraconazole + inhibitor
[27] = Fractional Inhibitory Concentration Index, ketoconazole + inhibitor
[28] = MIC of the inhibitor in combination with fluconazole
[29] = MIC of the inhibitor in combination with itraconazole
[30] = MIC of the inhibitor in combination with ketoconazole
[31] = MIC-MICc fold decrease of fluconazole, negative = increase
[32] = MIC-MICc fold decrease of itraconazole, negative = increase
[33] = MIC-MICc fold decrease of ketoconazole, negative = increase
[34] = MIC-MICc fold decrease of the inhibitor, with fluconazole
[35] = MIC-MICc fold decrease of the inhibitor, with itraconazole
[36] = MIC-MICc fold decrease of the inhibitor, with ketoconazole

CCCCCCCCCCCCN1CCC[C@H]1C(=O)N[C@@H](CC(=O)OC)C(=O)OC [dmPLA12]
FICI (Candida glabrata [1]; FLC:INH combination): 1
INH MICc (Candida glabrata [1]; [19]): 8
FLC FD (MIC-MICc fold decrease) (Candida glabrata [1]; [20]): 2
INH FD (MIC-MICc fold decrease) (Candida glabrata [1]; FLC:INH combination): 2
FICI (Candida glabrata [1]; ITR:INH combination): 0.38
INH MICc (Candida glabrata [1]; [21]): 2
ITR FD (MIC-MICc fold decrease) (Candida glabrata [1]; [22]): 4
INH FD (MIC-MICc fold decrease) (Candida glabrata [1]; ITR:INH combination): 8
FICI (Candida glabrata [1]; KET:INH combination): 0.75
INH MICc (Candida glabrata [1]; [23]): 4
KET FD (MIC-MICc fold decrease) (Candida glabrata [1]; [24]): 2
INH FD (MIC-MICc fold decrease) (Candida glabrata [1]; KET:INH combination): 4
FICI (Cryptococcus neoformans [2]; FLC:INH combination): 3
INH MICc (Cryptococcus neoformans [2]; [19]): 32
FLC FD (MIC-MICc fold decrease) (Cryptococcus neoformans [2]; [20]): 1
INH FD (MIC-MICc fold decrease) (Cryptococcus neoformans [2]; FLC:INH combination): -2
FICI (Cryptococcus neoformans [2]; ITR:INH combination): 1.5
INH MICc (Cryptococcus neoformans [2]; [21]): 16
ITR FD (MIC-MICc fold decrease) (Cryptococcus neoformans [2]; [22]): 2
INH FD (MIC-MICc fold decrease) (Cryptococcus neoformans [2]; ITR:INH combination): 1
FICI (Cryptococcus neoformans [2]; KET:INH combination): 0.75
INH MICc (Cryptococcus neoformans [2]; [23]): 8
KET FD (MIC-MICc fold decrease) (Cryptococcus neoformans [2]; [24]): 4
INH FD (MIC-MICc fold decrease) (Cryptococcus neoformans [2]; KET:INH combination): 2
IC50 (HEK-293T cells; HEK-293T cells, read-out: IC50): 2.01 µg/mL (≈ 4.72 µM)
IC50 (HEK-293T cells; read-out: HEK IC50): 2.01 µg/mL (≈ 4.72 µM)
FICI (FLC:INH) (Aspergillus flavus [3]; [25]): 1.5
FICI (ITR:INH) (Aspergillus flavus [3]; [26]): 0.5
FICI (KET:INH) (Aspergillus flavus [3]; [27]): 0.52
INH MICc (FLC:INH) (Aspergillus flavus [3]; [28]): 128
INH MICc (ITR:INH) (Aspergillus flavus [3]; [29]): 64
INH MICc (KET:INH) (Aspergillus flavus [3]; [30]): 4
FLC FD (FLC:INH) (Aspergillus flavus [3]; [31]): 1
ITR FD (ITR:INH) (Aspergillus flavus [3]; [32]): 4
KET FD (KET:INH) (Aspergillus flavus [3]; [33]): 2
INH FD (FLC:INH) (Aspergillus flavus [3]; [34]): 2
INH FD (ITR:INH) (Aspergillus flavus [3]; [35]): 4
INH FD (KET:INH) (Aspergillus flavus [3]; [36]): 64
MFC (Cryptococcus neoformans [4]): 16 µg/mL (≈ 37.5 µM)
MIC (Cryptococcus neoformans [4]): 16 µg/mL (≈ 37.5 µM)
MFC (Aspergillus fumigatus [5]): > 128 µg/mL
MIC (Aspergillus fumigatus [5]): 32 µg/mL (≈ 75 µM)
FICI (FLC:INH) (Aspergillus fumigatus [6]; [25]): 1.5
FICI (ITR:INH) (Aspergillus fumigatus [6]; [26]): 0.52
FICI (KET:INH) (Aspergillus fumigatus [6]; [27]): 1
INH MICc (FLC:INH) (Aspergillus fumigatus [6]; [28]): 128
INH MICc (ITR:INH) (Aspergillus fumigatus [6]; [29]): 2
INH MICc (KET:INH) (Aspergillus fumigatus [6]; [30]): 64
FLC FD (FLC:INH) (Aspergillus fumigatus [6]; [31]): 2
ITR FD (ITR:INH) (Aspergillus fumigatus [6]; [32]): 2
KET FD (KET:INH) (Aspergillus fumigatus [6]; [33]): 2
INH FD (FLC:INH) (Aspergillus fumigatus [6]; [34]): 1
INH FD (ITR:INH) (Aspergillus fumigatus [6]; [35]): 64
INH FD (KET:INH) (Aspergillus fumigatus [6]; [36]): 2
MFC [7]: 8 µg/mL (≈ 18.8 µM)
MIC [7]: 8 µg/mL (≈ 18.8 µM)
MFC (eight fungal species [8]; across eight species, read-out: Geometric mean MFC): 69.8 µg/mL (≈ 164 µM)
MIC (eight fungal species [8]; geometric mean across eight species, read-out: GM fungal MIC): 38.1 µg/mL (≈ 89.3 µM)
MIC (eight fungal species [8]; read-out: Geometric mean MIC): 38.1 µg/mL (≈ 89.3 µM)
MFC (Trichophyton rubrum [9]): > 128 µg/mL
MIC (Trichophyton rubrum [9]): 16 µg/mL (≈ 37.5 µM)
GM fungal MICc (eight fungal species [10]): 11.3
MFC (Candida albicans [11]): > 128 µg/mL
MIC (Candida albicans [11]): > 128 µg/mL
MFC (Candida glabrata [12]): > 128 µg/mL
MIC (Candida glabrata [12]): > 128 µg/mL
MFC (Saccharomyces cerevisiae [13]): 4 µg/mL (≈ 9.38 µM)
MIC (Saccharomyces cerevisiae [13]): 4 µg/mL (≈ 9.38 µM)
FICI (FLC:INH) (Saccharomyces cerevisiae [14]; [25]): 0.75
FICI (ITR:INH) (Saccharomyces cerevisiae [14]; [26]): 0.75
FICI (KET:INH) (Saccharomyces cerevisiae [14]; [27]): 0.38
INH MICc (FLC:INH) (Saccharomyces cerevisiae [14]; [28]): 2
INH MICc (ITR:INH) (Saccharomyces cerevisiae [14]; [29]): 1
INH MICc (KET:INH) (Saccharomyces cerevisiae [14]; [30]): 1
FLC FD (FLC:INH) (Saccharomyces cerevisiae [14]; [31]): 4
ITR FD (ITR:INH) (Saccharomyces cerevisiae [14]; [32]): 2
KET FD (KET:INH) (Saccharomyces cerevisiae [14]; [33]): 8
INH FD (FLC:INH) (Saccharomyces cerevisiae [14]; [34]): 2
INH FD (ITR:INH) (Saccharomyces cerevisiae [14]; [35]): 4
INH FD (KET:INH) (Saccharomyces cerevisiae [14]; [36]): 4
FICI (Candida albicans [15]; FLC:INH combination): 1.06
INH MICc (Candida albicans [15]; [19]): 8
FLC FD (MIC-MICc fold decrease) (Candida albicans [15]; [20]): 1
INH FD (MIC-MICc fold decrease) (Candida albicans [15]; FLC:INH combination): 16
FICI (Candida albicans [15]; ITR:INH combination): ≥4
INH MICc (Candida albicans [15]; [21]): 32
ITR FD (MIC-MICc fold decrease) (Candida albicans [15]; [22]): -4
INH FD (MIC-MICc fold decrease) (Candida albicans [15]; ITR:INH combination): 4
FICI (Candida albicans [15]; KET:INH combination): 2.13
INH MICc (Candida albicans [15]; [23]): 16
KET FD (MIC-MICc fold decrease) (Candida albicans [15]; [24]): -2
INH FD (MIC-MICc fold decrease) (Candida albicans [15]; KET:INH combination): 8
FICI (FLC:INH) (Trichophyton rubrum [16]; [25]): 1.13
FICI (ITR:INH) (Trichophyton rubrum [16]; [26]): 1.06
FICI (KET:INH) (Trichophyton rubrum [16]; [27]): 1.13
INH MICc (FLC:INH) (Trichophyton rubrum [16]; [28]): 16
INH MICc (ITR:INH) (Trichophyton rubrum [16]; [29]): 16
INH MICc (KET:INH) (Trichophyton rubrum [16]; [30]): 16
FLC FD (FLC:INH) (Trichophyton rubrum [16]; [31]): 8
ITR FD (ITR:INH) (Trichophyton rubrum [16]; [32]): 16
KET FD (KET:INH) (Trichophyton rubrum [16]; [33]): 8
INH FD (FLC:INH) (Trichophyton rubrum [16]; [34]): 1
INH FD (ITR:INH) (Trichophyton rubrum [16]; [35]): 1
INH FD (KET:INH) (Trichophyton rubrum [16]; [36]): 1
FICI ([17]; FLC:INH combination): 0.38
INH MICc [17, 19]: 16
FLC FD (MIC-MICc fold decrease) [17, 20]: 4
INH FD (MIC-MICc fold decrease) ([17]; FLC:INH combination): 8
FICI ([17]; ITR:INH combination): 0.63
INH MICc [17, 21]: 16
ITR FD (MIC-MICc fold decrease) [17, 22]: 2
INH FD (MIC-MICc fold decrease) ([17]; ITR:INH combination): 8
FICI ([17]; KET:INH combination): 0.19
INH MICc [17, 23]: 16
KET FD (MIC-MICc fold decrease) [17, 24]: 16
INH FD (MIC-MICc fold decrease) ([17]; KET:INH combination): 8
MFC (Aspergillus flavus [18]): > 128 µg/mL
MIC (Aspergillus flavus [18]): > 128 µg/mL
